In patent US20210130291A1, “METHODS FOR TREATING DIABETES USING VDAC1 INHIBITORS” (THE NATIONAL INSTITUTE FOR BIOTECHNOLOGY IN THE NEGEV LTD., priority 2016, published 2021):

Key:
human ND islets = test: GSIS in non-diabetic human islets cultured at 5 or 20 mM glucose; assay type: cell-based
Source text: Human pancreatic islets were obtained through collaboration between Human Tissue Laboratory within Lund University Diabetes Centre (LUDC) and the Nordic Network for Clinical Islet Transplantation (Prof. Olle Korsgren, Uppsala University, Sweden). Donors were grouped according to HbA1c i.e. less than 6% (ND), between 6% and 6.5% (IGT), higher than 6.5% or history of diabetes (T2D). The human islets (70-90% purity) had been cultured in CMRL 1066 (ICN Biomedicals, Costa Mesa, Calif.) supplemented with 10 mM HEPES, 2 mM L-glutamine, […] gentamicin, […] fungizone (Gibco, BRL, Gaithersburg, Md.), 20 μg/ml ciprofloxacin (Bayer Healthcare, Leverkusen, Germany) and 10 mM nicotinamide at 37° C. (5% CO2) for 1 to 5 days prior to the arrival in the laboratory. The islets were then hand-picked under stereomicroscope prior to use. All procedures using human islets were approved by the ethical committees at Uppsala and Lund Universities, Sweden.
Human pancreatic islets were collected under a stereomicroscope at room temperature and cultured at 5.5 or 20 mM glucose in the absence or presence of test agents for 72 h. Thereafter the islets were washed and preincubated for 30 min at 37° C. in Krebs Ringer bicarbonate buffer, pH 7.4, supplemented with N-2 hydroxyethylpiperazine-N′-2-ethanesulfonic acid (10 mM), 0.1% bovine serum albumin, and 1 mM glucose. […]

db/db mice = test: Daily i.p. injection of VBIT-4 in db/db and C57/BL mice (blood glucose, IPGTT); assay type: in vivo, mouse
Description: 5 weeks old db/db mice and control (C57/bl) (Janvier Laboratory, France), weighing 18-25 g, were used throughout the experiments. They were given a standard pellet diet (B&K) and tap water ad libitum. The experimental procedures were approved by the Ethics Committee for Animal Research at Lund University. Isolation of pancreatic islets was performed by retrograde injection of a collagenase solution via the bile-pancreatic duct and islets were then collected under a stereomicroscope at room temperature.
IPGTTs were performed in db/db and c57/bl mice after treatment with VDAC1 blocker (daily intraperitoneal injection with VBIT-4, […]) for 5 weeks. Prior to IPGTT test, the mice were fasted for 4 h. Glucose was dissolved in 0.9% NaCl and 2.0 g glucose/kg body weight was injected intraperitoneally. Serial blood sampling thereafter from vena saphena was performed at 0, 5, 15, 30 and 90 min as previously described elsewhere 35. Blood glucose was analyzed using glucose oxidase method and plasma insulin was analyzed by ELISA (Salehi, A. et al. 2008. PLoS ONE 3, e2165; Rosengren, A. H. et al. 2010. Science 327, 217-220). Total volume load was 0.3 ml. The Cumulative (area under the curve) changes in plasma glucose or insulin were calculated by subtracting the recorded values from basal (time 0).

Structure (SMILES)	GSIS after culture at 5 mM glucose (human ND islets; 72 h culture with agent (FIG. 6d))	GSIS after culture at 20 mM glucose (human ND islets; 72 h culture with agent, then 1 h at 1G or 16.7G (FIG. 6d))	effects in animals with severe diabetes (db/db mice; 14-week old db/db animals with severe diabetes, data not shown)	effects in control mice (db/db mice; C57/BL mice, daily i.p. VBIT-4 from age 6 to 11 weeks)	glucose tolerance (IPGTT, 2 g/kg) (db/db mice; db/db mice after 5 weeks VBIT-4 i.p. (FIG. 7g, 7h))	GSIS in vivo and in isolated islets (db/db mice; db/db mice after 5 weeks VBIT-4 i.p. (FIG. 7i, 7k, 7l))	blood glucose concentrations upon VBIT-4 cessation (db/db mice; db/db mice followed after 5 weeks treatment (FIG. 7f))	development of hyperglycemia (blood glucose) (db/db mice; db/db mice, daily i.p. 25 mg/kg from age 6 to 11 weeks, vs vehicle (FIG. 7f))	water consumption and urine production (db/db mice; db/db mice, early administration, data not shown)
CN(C)C(=N)N=C(N)N [metformin]	unaffected	prevented the attenuation of GSIS							
O=C(CC(CO)N1CCN(c2ccc(OC(F)(F)F)cc2)CC1)Nc1ccc(Cl)cc1 (racemic) [VBIT-4, N-(4-chlorophenyl)-4-hydroxy-3-(4-(4-(trifluoromethoxy)phenyl)-piperazin-1-yl)butanamide]			only marginal effects	no effects	markedly improved	markedly improved	rose gradually over several weeks	prevented the development of the severe hyperglycemia	prevented increases in water consumption and urine production
